Data set [1] deals with GloResponse SIE-luc2P/HEK 293 cells. Description: BCA protein concentration of reporter cells run in parallel. Format: cell-based.
Data set [2] has as its system STAT3 reporter, induction by interleukin-6. Nature of the data set: STAT3 reporter GloResponse SIE-luc2P/HEK293 cell assay, IL-6 induction.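 On all read-outs here: IL-6 added at 40 ng/mL (EC80) for roughly one day after pretreatment, luciferase luminescence read with Bio-Glo reagent, untreated +IL6 wells serve as control.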 The class given is cell-based. Conditions: for effect on IL-6 induction of STAT3 reporter: 24 hours and 48 hours treatment prior to IL-6.
The subject of another data set is PANC-1 cells. Description: PANC-1 growth inhibition with or without Gemcitabine. As to conditions: for Absorbance: 72 hours.
The test system of another data set is PANC-1 xenograft. Description: PANC-1 xenograft, sdAb alone, Gemcitabine alone or combination, Example 19. Conditions: for BODY WEIGHT (g) Mean / TUMOR VOLUMES (mm^3) Mean / % INHIBITION OF CONTROL (tumor growth): SBT-100 5 mg/kg BID, Gemcitabine 20 mg/kg, or both.
Data set [3] concerns the target T1, active human TNF-α full length protein (Homo sapiens, UniProt P01375).
T1 construct: purchased Abcam
Nature of the data set: TNF ELISA, binding of anti-TNF-α sdAbs to coated TNF-α protein. Conditions: for detection in coated versus non-coated wells: 1 μg/mL sdAb, 0.5 μg/mL coating antigen; for binding to the TNF-α protein, detection: Experiment 1, 1 μg/mL sdAb; for OD450 Values: Non-Coated wells, sdAb 1 μg/mL, non-specific binding. Here is the method: In this Example, the binding of anti-TNF-α sdAbs to active human TNF-α full length protein was assessed using an enzyme linked immunosorbent assay (ELISA) format. Additionally, the feasibility of utilizing a secondary antibody targeted to the his tag portion of the sdAbs was assessed.
Plates were incubated overnight at 2-8° C. After the incubation, plates were washed (3×) and blocked (3% Bovine Serum Albumin (BSA) in Phosphate Buffered Saline (PBS)) for at least one hour at room temperature.
After removal of the blocking buffer and washing (3×), samples were added to the appropriate wells of the ELISA plates and incubated at room temperature with shaking (150 rpm) for at least one hour. The secondary antibody (rabbit anti-llama biotinylated antibody at either a 1:5,000 or 10,000 dilution) was then added to each well and incubated with shaking for at least one hour at room temperature.
After the incubation with secondary antibody, the plates were again washed (3×) and horseradish peroxidase (HRP) at either a 1:25,000 or 1:50,000 dilution was added to each well. Plates were incubated with shaking for at least one hour at room temperature. A final wash (3×) was performed followed by the addition of TMB (Tetramethylbenzidine) substrate. After a 20 to 25 minute incubation at room temperature, stop solution was added to halt the colorimetric reaction. The absorbance at 450 nm was measured on a VersaMax instrument utilizing SoftMax Pro GxP version 5.4 software from Molecular Devices (Sunnyvale, Calif.).
The final experiment performed was to confirm that the results from the ELISA testing were due to binding to the TNF-α protein and not non-specific binding of the sdAb. For this determination, a comparison was made between wells coated with 0.5 μg/mL of coating antigen and non-coated wells. […] This experiment confirms that the detection seen with the previous experiments was due to the specific binding of the VHH to the coating antigen and not due to non-specific binding.
(In general: An ELISA detects its analyte on a solid surface through an enzyme-linked reagent.)

Data set [4] deals with rabbit anti-llama biotinylated antibody or his-probe (H-3) biotin labeled antibody. Description: ELISA with sdAbs coated, binding of secondary antibodies (Experiments 2 and 3). Here is the method:
Two assays (Experiment 2 and 3) were performed to assess the binding of the secondary antibody to the sdAbs. A similar ELISA method was utilized except the sdAbs were directly coated onto the assay plate at a concentration of 1 μg/mL. Plates were incubated overnight at 2-8° C. After the incubation, plates were washed (3×) and blocked (3% BSA in PBS) for at least one hour at room temperature.
After removal of the blocking buffer and washing (3×), the secondary antibodies, either rabbit anti-llama biotinylated antibody or his-probe (H-3) biotin labeled antibody at was then added at a 1:5,000 dilution to each well and incubated with shaking for at least one hour at room temperature. Only the rabbit anti-llama biotinylated antibody was used in Experiment 2. Both antibodies were run in parallel in Experiment 3.
After the incubation with secondary antibody, the plates were again washed (3×) and HRP at a 1:50,000 dilution was added to each well. Plates were incubated with shaking for at least one hour at room temperature. One last wash (3×) was performed followed by the addition of TMB substrate and plates were incubated at room temperature. For the anti-llama biotinylated antibody stop solution was added to halt the colorimetric reaction at 10 minutes. The his-probe (H-3) biotin labeled antibody was allowed to incubate for 20 minutes prior to stopping. The absorbance at 450 nm was measured as before.

The mark [5] stands for this setting: 24 Hour Treatment Prior to IL6 Induction, high conc.: VHH13 55.8 μg/mL, VHH14 84.3 μg/mL, BB1608 4.16 μM, VHH69 50.5 μg/mL.
Setting [6] is: 24 Hour Treatment Prior to IL6 Induction, low conc.: VHH13, VHH14, VHH69 10 μg/mL, BB1608 2 μM.
The mark [7] stands for this setting: 48 Hour Treatment Prior to IL6 Induction, high conc.: VHH13 55.8 μg/mL, VHH14 84.3 μg/mL, BB1608 4.16 μM, VHH69 50.5 μg/mL.
[8] abbreviates: 48 Hour Treatment Prior to IL6 Induction, low conc.: VHH13, VHH14, VHH69 10 μg/mL, BB1608 2 μM.
Setting [9] is: His-probe (H-3), Experiment 3, stored 1:100 dilution of sdAb.
[10] abbreviates: Rabbit anti-Llama Secondary Antibody, Experiment 2, sdAb coated at 1 μg/mL.
Where [11] appears, read: Rabbit anti-Llama Secondary Antibody, Experiment 3, stored 1:100 dilution of sdAb.

“And” between values parts separate entries of the source, which are not always exact repeats. Equal entries are not always repeated.

The values below come from patent US20170327598A1, “SINGLE DOMAIN ANTIBODIES DIRECTED AGAINST INTRACELLULAR ANTIGENS” (SINGH MOLECULAR MEDICINE, LLC, priority 2014, published 2017).

T1 sequence (P01375 77-233 limits assumed): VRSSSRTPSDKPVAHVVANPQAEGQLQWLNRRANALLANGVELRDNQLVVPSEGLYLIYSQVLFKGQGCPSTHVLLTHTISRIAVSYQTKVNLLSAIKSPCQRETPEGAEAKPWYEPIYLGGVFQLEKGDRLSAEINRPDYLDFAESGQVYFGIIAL

Consider `CC(=O)c1cc2c(o1)C(=O)c1ccccc1C2=O` [BB1608, napabucasin, reference compound], for which the Protein concentration in data set [1] (setting [5]) was 174; in data set [1] (setting [6]), 425; in data set [1] (setting [7]) it was 165; in data set [1] (setting [8]), 324. For the same molecule, the “Average RLU” value amounted to 33 RLU in data set [2] (setting [5]), 38 RLU in data set [2] (setting [6]), 29 RLU in data set [2] (setting [7]) and 33 RLU in data set [2] (setting [8]). Also, the “Average RLU with Media Blank” value in data set [2] (setting [5]) is on record as 8 RLU; in data set [2] (setting [6]), 12 RLU; in data set [2] (setting [7]), −3 RLU; in data set [2] (setting [8]), 0 RLU. Further, the “Fold-Induction RLU/RLU of-IL6” value in data set [2] (setting [5]) and in data set [2] (setting [6]) was 0 throughout. Further, the “Luminescence (RLU), single wells” value in data set [2] (setting [5]) was 41 RLU and 28 RLU and 31 RLU; in data set [2] (setting [6]), 41 RLU and 33 RLU and 39 RLU; in data set [2] (setting [7]) it was 25 RLU and 31 RLU and 32 RLU; in data set [2] (setting [8]) it was 26 RLU and 42 RLU and 31 RLU. Further, the “Fold-Induction RLU/RLU of−IL6” value in data set [2] (setting [7]) and in data set [2] (setting [8]) was 0 in each case. Further, the “effect on IL-6 induction of STAT3 reporter” value in data set [2] is “Inhibition of IL-6”.
For `Nc1ccn([C@@H]2O[C@H](CO)[C@@H](O)C2(F)F)c(=O)n1` [Gemcitabine], the Absorbance in the data set on PANC-1 cells (Gemcitabine 0.020 μM in DMSO) came to 1.560; in the data set with PANC-1 cells (Gemcitabine 0.039 μM in DMSO), 1.240; with PANC-1 cells (Gemcitabine 0.625 μM in DMSO) it was 1.050; in the data set on PANC-1 cells (Gemcitabine 5 μM in DMSO), 0.631; with PANC-1 cells (Gemcitabine 10 μM in DMSO) it was 0.543. Also, the IC50 with PANC-1 cells (Homo sapiens, PANC-1, read-out: IC50 concentration) was 10 µM. In the data set with PANC-1 xenograft (Day 1 (start of treatment), SBT-100 5 mg/kg IP BID × 14, Gemcitabine 20 mg/kg IP QD × 7, or both), the “Mean Tumour Size (mm^3) Day 1” value is listed as 122.23 ± 23.46 mm^3. Moreover, the “BODY WEIGHT (g) Mean” value is reported as 23.77 g in the data set on PANC-1 xenograft (Day 1); 23.47 g in the data set with PANC-1 xenograft (Day 5); 23.37 g with PANC-1 xenograft (Day 8); 23.13 g in the data set on PANC-1 xenograft (Day 12); 23.97 g with PANC-1 xenograft (Day 19); 24.55 g in the data set on PANC-1 xenograft (Day 22). Besides, the “TUMOR VOLUMES (mm^3) Mean” value in the data set on PANC-1 xenograft (Day 1) is listed as 122.23 mm^3; in the data set with PANC-1 xenograft (Day 5), 165.57 mm^3; with PANC-1 xenograft (Day 8) it was 183.88 mm^3; in the data set on PANC-1 xenograft (Day 12), 191.6 mm^3; with PANC-1 xenograft (Day 15) it was 246.48 mm^3; with PANC-1 xenograft (Day 19), 312.74 mm^3. Besides, the “TUMOR VOLUMES (mm^3) Mean” value in the data set with PANC-1 xenograft (Day 22) is given as 411.93 mm^3. In addition, the “% INHIBITION OF CONTROL (tumor growth)” value came to 19.51% in the data set with PANC-1 xenograft (Day 12), 23.17% with PANC-1 xenograft (Day 15), 23.26% in the data set on PANC-1 xenograft (Day 19) and 14.93% in the data set with PANC-1 xenograft (Day 22).

B1: anti-TNF-alpha VHH62: third anti-TNF-alpha single domain antibody, SEQ ID NO:47 (protein)
VHH: QVQLVESGGGPVQAGETLRLSCTASGFTFAEADMGWYRQAPGHECELVSTITTEGITSEASSYYADSVRGRFTISRDNAKNMVYLQMNSLKPEDTAVYYCAPDPYAYSTYSDYCSWAQGTQGTLVTVSS
modifications: Camelid
Turning to B1, the “detection in coated versus non-coated wells” value in data set [3] is “not detected in either coated or non-coated wells”. In addition, in data set [3], the “binding to the TNF-α protein, detection” value is reported as “little to no detection”. For the same molecule, in data set [3] (Experiment 4, 10-fold serial dilutions starting at 1 μg/mL), the OD values is on record as less than 0.2 OD450. Further, the “OD450 Values” in data set [3] is reported as −0.001; in data set [4] (setting [9]) it was 0.196; in data set [4] (setting [10]) it was 1.485; in data set [4] (setting [11]) it was 2.341.

B2: anti-TNF-alpha VHH69: second anti-TNF-alpha single domain antibody, SEQ ID NO:46 (protein)
VHH: EVQLVESGGGSVLAGGSLRLSCVASGFTSRYNYMAWFRQAPGKEREGVATIGTASGSADYYGSVKDRFTISQDNAKNTVYLQMNSLKPEDTAMYYCAARTYGTISLTPSDYRYWGQGTLVTVSS
modifications: Camelid
In the case of B2, the “detection in coated versus non-coated wells” value in data set [3] is on record as “detected in coated wells but not in non-coated wells”. Also, the “binding to the TNF-α protein, detection” value in data set [3] is “little to no detection”. For the same molecule, the “OD450 Values” in data set [3] amounted to 0.007; in data set [4] (setting [9]), 0.153; in data set [4] (setting [10]) it was 0.499; in data set [4] (setting [11]), 0.443. Besides, the Protein concentration was determined as 213 in data set [1] (setting [5]), 237 in data set [1] (setting [6]) and 222 in data set [1] (setting [8]). Moreover, the “Average RLU” value came to 198596 RLU in data set [2] (setting [5]), 169752 RLU in data set [2] (setting [6]), 225726 RLU in data set [2] (setting [7]) and 172988 RLU in data set [2] (setting [8]). Besides, the “Average RLU with Media Blank” value in data set [2] (setting [5]) is reported as 198571 RLU; in data set [2] (setting [6]), 169726 RLU; in data set [2] (setting [7]) it was 225694 RLU; in data set [2] (setting [8]), 172955 RLU. In addition, the “Fold-Induction RLU/RLU of-IL6” value is 434 in data set [2] (setting [5]) and 371 in data set [2] (setting [6]). The “Luminescence (RLU), single wells” value in data set [2] (setting [5]) is 203139 RLU and 194320 RLU and 198330 RLU; in data set [2] (setting [6]) it was 159115 RLU and 184364 RLU and 165776 RLU; in data set [2] (setting [7]), 237816 RLU and 220259 RLU and 219104 RLU; in data set [2] (setting [8]), 191241 RLU and 171796 RLU and 155927 RLU. Further, the “Fold-Induction RLU/RLU of−IL6” value is recorded as 452 in data set [2] (setting [7]) and 347 in data set [2] (setting [8]). Also, the “effect on IL-6 induction of STAT3 reporter” value in data set [2] was “enhancement of the IL-6 induction”.
